ChEMBL document CHEMBL1150871, “New Briarane Stecholide Diterpenes from the Indonesian Gorgonian Briareum sp” (J Nat Prod, 1998)
Converted amounts (≈) assume the structure as drawn.

Assays:
Format in all cases: functional, cell-based
A549 = test: Cytotoxicity against human A549 cells
HT-29 = test: Cytotoxicity against human HT-29 cells
P388 = test: Cytotoxicity against mouse P388 cells
SK-MEL-28 = test: Cytotoxicity against human SK-MEL-28 cells

Structure (SMILES) | IC50 (A549) [µg/mL] | IC50 (HT-29) [µg/mL] | IC50 (P388) [µg/mL] | IC50 (SK-MEL-28) [µg/mL] | EC50 (P388) [µg/mL]
CC(=O)O[C@H]1C[C@@H]2O[C@]2(C)[C@@H]2[C@H](OC(C)=O)[C@@]34O[C@@]3(C)C(=O)O[C@H]4/C=C(/C)[C@H](OC(C)=O)C[C@H](OC(C)=O)[C@]12C [STECHOLIDE C ACETATE] | > 10 | > 10 | > 10 | > 10 | –
CCCC(=O)O[C@@H]1C/C(C)=C\[C@@H]2OC(=O)[C@]3(C)O[C@]23[C@H](OC(C)=O)[C@H]2C(C)=C[C@@H](O)[C@H](OC(C)=O)[C@]2(C)[C@H]1OC(C)=O [STECHOLIDE I] | > 10 | > 10 | > 10 | > 10 | –
CC(=O)O[C@H]1C/C(C)=C\[C@@H]2OC(=O)[C@]3(C)O[C@]23[C@@H](OC(C)=O)[C@H]2C(C)=CC[C@H](OC(C)=O)[C@]2(C)[C@H]1OC(C)=O | > 10 | > 10 | > 10 | > 10 | –
CC(=O)O[C@H]1CC/C(C)=C\[C@@H]2OC(=O)[C@]3(C)O[C@@]23[C@@H](OC(C)=O)[C@H]2[C@@]3(C)O[C@H]3C[C@H](OC(C)=O)[C@]12C | > 10 | > 10 | – | > 10 | 1.59 (≈ 3.14 µM)
CC(=O)O[C@H]1C=C[C@@](C)(O)[C@@H]2[C@H](OC(C)=O)[C@@]34O[C@@]3(C)C(=O)O[C@H]4/C=C(/C)CC[C@H](OC(C)=O)[C@@]12C | > 10 | > 10 | > 10 | > 10 | –
CCCC(=O)O[C@H]1C[C@@H](OC(C)=O)/C(C)=C\[C@@H]2OC(=O)[C@]3(C)O[C@@]23[C@@H](OC(C)=O)[C@H]2[C@@]3(C)O[C@H]3C[C@H](OC(C)=O)[C@]12C [STECHOLIDE A ACETATE] | > 10 | > 10 | > 10 | > 10 | –
CC(=O)O[C@@H]1[C@@H]2O[C@]2(C)[C@@H]2[C@@H](OC(C)=O)[C@]34O[C@@]3(C)C(=O)O[C@H]4/C=C(/C)C[C@@H](OC(C)=O)[C@H](OC(C)=O)[C@@]2(C)[C@H]1OC(C)=O [STECHOLIDE K] | > 10 | > 10 | > 10 | > 10 | –
CC(=O)O[C@@H]1[C@H]2[C@@]3(C)O[C@H]3[C@@H](O)[C@H](OC(C)=O)[C@]2(C)[C@@H](OC(C)=O)[C@H](OC(C)=O)C/C(C)=C\[C@@H]2OC(=O)[C@]3(C)O[C@@]213 [STECHOLIDE L] | 2.5 (≈ 4.31 µM) | 5 (≈ 8.61 µM) | 10 (≈ 17.2 µM) | 5 (≈ 8.61 µM) | –
CC(=O)O[C@@H]1[C@H]2C(C)=C[C@@H](O)[C@H](OC(C)=O)[C@]2(C)[C@@H](OC(C)=O)[C@H](OC(C)=O)C/C(C)=C\[C@@H]2OC(=O)[C@]3(C)O[C@@]213 [STECHOLIDE J] | > 10 | > 10 | > 10 | > 10 | –
